According to patent publication US20230278981A1, “DICHLOROPHENOL HSD17B13 INHIBITORS AND USES THEREOF” (INIPHARM, INC., priority 2020, published 2023):

molecular target: HSD17B13 (Homo sapiens (Human), UniProt Q7Z5P4); assay: LC/MS estrone detection assay: conversion of estradiol to estrone by HSD17B13; format: biochemical; conditions: 4 μM estradiol, 6 mM NAD+, 30 nM HSD17B13 enzyme (E. coli expressed His-tagged), 2 hours at 26.5° C.
Method in brief: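 His-tagged E. coli-expressed HSD17B13 (30 nM) with 4 μM estradiol and 6 mM NAD+ in 1 M potassium phosphate pH 7.4, 0.5% DMSO, 2 h at 26.5° C. Estrone and estradiol quantified by LC-MS/MS after MeCN quench with D4-estrone internal standard; activity as % of uninhibited enzyme, IC50 by four-parameter fit, duplicates.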

Sequence of HSD17B13 (Q7Z5P4 20-300): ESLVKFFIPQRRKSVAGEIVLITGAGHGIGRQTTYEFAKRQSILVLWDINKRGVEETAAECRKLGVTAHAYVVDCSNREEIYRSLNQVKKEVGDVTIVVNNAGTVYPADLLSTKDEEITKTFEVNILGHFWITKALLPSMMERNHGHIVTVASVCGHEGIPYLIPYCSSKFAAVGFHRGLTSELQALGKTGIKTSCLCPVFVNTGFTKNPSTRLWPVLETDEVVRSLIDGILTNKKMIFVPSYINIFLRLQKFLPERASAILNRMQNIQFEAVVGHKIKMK

| SMILES | IC50 [µM] |
| --- | --- |
| O=C(Nc1cccc2ncn(Cc3ccccc3N3CCOCC3)c(=O)c12)c1cc(Cl)c(O)c(Cl)c1 [Example 84, 3,5-dichloro-4-hydroxy-N-(3-(2-morpholinobenzyl)-4-oxo-3,4-dihydroquinazolin-5-yl)benzamide] | ≤ 0.1 |
| O=C(N[C@@H]1CCCC[C@H]1C(=O)NCc1ccccc1OC(F)(F)F)c1cc(Cl)c(O)c(Cl)n1 [Example 145, 4,6-dichloro-5-hydroxy-N-((1R, 2R)-2-((2-(trifluoromethoxy)benzyl)carbamoyl)cyclohexyl)picolinamide] | 1 to 10 |
| O=C(Nc1ccc(OCCO)cc1C(=O)NCc1ccccc1OC(F)(F)F)c1cc(Cl)c(O)c(Cl)c1 [Example 86, 3,5-dichloro-4-hydroxy-N-(4-(2-hydroxyethoxy)-2-((2-(trifluoromethoxy)benzyl)carbamoyl)phenyl)benzamide] | 0.1 to 0.5 |
| N#Cc1cc(C(=O)Nc2cccc3ncn(Cc4cccc(C(F)(F)F)c4)c(=O)c23)cc(Cl)c1O [Example 68, 3-chloro-5-cyano-4-hydroxy-N-(4-oxo-3-(3-(trifluoromethyl)benzyl)-3,4-dihydroquinazolin-5-yl)benzamide] | 0.1 to 0.5 |
| Cc1ccc2ncn(Cc3ccccc3OC(F)(F)F)c(=O)c2c1NC(=O)c1cc(Cl)c(O)c(Cl)n1 [Example 131, 4,6-dichloro-5-hydroxy-N-(6-methyl-4-oxo-3-{[2-(trifluoromethoxy)phenyl]methyl}-3,4-dihydroquinazolin-5-yl)pyridine-2-carboxamide] | 0.1 to 0.5 |
| Cn1nc(NC(=O)c2cc(Cl)c(O)c(Cl)c2)c2c(=O)n(Cc3ccccc3)cnc21 [Example 99, N-(5-benzyl-1-methyl-4-oxo-4,5-dihydro-1H-pyrazolo[3,4-d]pyrimidin-3-yl)-3,5-dichloro-4-hydroxybenzamide] | 1 to 10 |
| Cc1nsc(NC(=O)c2cc(Cl)c(O)c(Cl)n2)c1C(=O)NCc1ccccc1F [Example 114, 5-(4,6-dichloro-5-hydroxypicolinamido)-N-(2-fluorobenzyl)-3-methylisothiazole-4-carboxamide] | 0.1 to 0.5 |
| O=C(Nc1cccc2ncn(C(CN3CCOCC3)c3ccccc3)c(=O)c12)c1cc(Cl)c(O)c(Cl)c1 (stereo not drawn) [Example 123, 3,5-dichloro-4-hydroxy-N-(3-(2-morpholino-1-phenylethyl)-4-oxo-3,4-dihydroquinazolin-5-yl)benzamide] | 0.1 to 0.5 |
| Cn1nc(CNC(=O)c2ncsc2NC(=O)c2cc(Cl)c(O)c(Cl)n2)c2ccccc21 [Example 187, 5-(4,6-dichloro-5-hydroxypicolinamido)-N-((1-methyl-1H-indazol-3-yl)methyl)thiazole-4-carboxamide] | 0.1 to 0.5 |
| O=C(Nc1scnc1C(=O)NCc1ncccc1C(F)(F)F)c1cc(Cl)c(O)c(Cl)n1 [Example 196, 5-(4,6-dichloro-5-hydroxypicolinamido)-N-((3-(trifluoromethyl)pyridin-2-yl)methyl)thiazole-4-carboxamide] | 0.1 to 0.5 |
| O=C(Nc1ncsc1C(=O)NCc1ccc(F)cc1F)c1cc(Cl)c(O)c(Cl)c1 [Example 28, 4-(3,5-dichloro-4-hydroxybenzamido)-N-(2,4-difluorobenzyl)thiazole-5-carboxamide] | 1 to 10 |
| O=C(Nc1cccc2nc(C(F)(F)F)n(C3CC3c3ccccc3)c(=O)c12)c1cc(Cl)c(O)c(Cl)n1 (stereo not drawn) [Example 101, 4,6-dichloro-5-hydroxy-N-(4-oxo-3-(2-phenylcyclopropyl)-2-(trifluoromethyl)-3,4-dihydroquinazolin-5-yl)picolinamide] | 1 to 10 |
| CC(C)(C)CCn1cnc2cccc(NC(=O)c3cc(Cl)c(O)c(Cl)c3)c2c1=O [Example 57, 3,5-dichloro-N-(3-(3,3-dimethylbutyl)-4-oxo-3,4-dihydroquinazolin-5-yl)-4-hydroxybenzamide] | 0.1 to 0.5 |
| O=C(Nc1cccc2ncn(Cc3ccc(OC(F)(F)F)cc3)c(=O)c12)c1cc(Cl)c(O)c(Cl)n1 [Example 50, 4,6-dichloro-5-hydroxy-N-(4-oxo-3-(4-(trifluoromethoxy)benzyl)-3,4-dihydroquinazolin-5-yl)picolinamide] | 0.1 to 0.5 |
| Cn1nc(NC(=O)c2cc(Cl)c(O)c(Cl)n2)c2c(=O)n(Cc3ccccc3)cnc21 [Example 107, N-(5-benzyl-1-methyl-4-oxo-4,5-dihydro-1H-pyrazolo[3,4-d]pyrimidin-3-yl)-4,6-dichloro-5-hydroxypicolinamide] | 0.5 to 1 |
| O=C(Nc1cccc2ncn(Cc3ccccc3OC(F)(F)F)c(=O)c12)c1cc(Cl)c(O)c(Cl)n1 [Example 23, 4,6-dichloro-5-hydroxy-N-(4-oxo-3-{[2-(trifluoromethoxy)phenyl]methyl}-3,4-dihydroquinazolin-5-yl)pyridine-2-carboxamide] | 0.1 to 0.5 |
| O=C(Nc1cccc2ncn(C3(c4ccccc4F)CC3)c(=O)c12)c1cc(Cl)c(O)c(Cl)n1 [Example 72, 4,6-dichloro-N-(3-(1-(2-fluorophenyl)cyclopropyl)-4-oxo-3,4-dihydroquinazolin-5-yl)-5-hydroxypicolinamide] | 0.1 to 0.5 |
| O=C(Nc1cccc2ncn(Cc3cocn3)c(=O)c12)c1cc(Cl)c(O)c(Cl)c1 [Example 15, 3,5-dichloro-4-hydroxy-N-(3-(oxazol-4-ylmethyl)-4-oxo-3,4-dihydroquinazolin-5-yl)benzamide] | 0.5 to 1 |

More lines, now with the values ahead:

| IC50 [µM] | SMILES |
| --- | --- |
| ≤ 0.1 | O=C(Nc1cccc2ncn(Cc3cccnc3C(F)(F)F)c(=O)c12)c1cc(Cl)c(O)c(Cl)c1 [Example 82, 3,5-dichloro-4-hydroxy-N-(4-oxo-3-((2-(trifluoromethyl)pyridin-3-yl)methyl)-3,4-dihydroquinazolin-5-yl)benzamide] |
| ≤ 0.1 | C[C@@H](c1cccc(F)c1)n1cnc2cccc(NC(=O)c3cc(Cl)c(O)c(Cl)c3)c2c1=O [Example 12, (S)-3,5-dichloro-N-(3-(1-(3-fluorophenyl)ethyl)-4-oxo-3,4-dihydroquinazolin-5-yl)-4-hydroxybenzamide] |
| 0.1 to 0.5 | CS(=O)(=O)c1ccccc1Cn1cnc2cccc(NC(=O)c3cc(Cl)c(O)c(Cl)c3)c2c1=O [Example 51, 3,5-dichloro-4-hydroxy-N-(3-(2-(methylsulfonyl)benzyl)-4-oxo-3,4-dihydroquinazolin-5-yl)benzamide.] |
| 0.1 to 0.5 | O=C(Nc1cccnc1C(=O)NCc1ccccc1OC(F)(F)F)c1cc(Cl)c(O)c(Cl)c1 [Example 69, 3-(3,5-dichloro-4-hydroxybenzamido)-N-(2-(trifluoromethoxy)benzyl) picolinamide] |
| ≤ 0.1 | O=C(Nc1scnc1C(=O)NCc1ccccc1C(F)(F)F)c1cc(Cl)c(O)c(Cl)c1 [Example 182, 5-(3,5-dichloro-4-hydroxybenzamido)-N-(2-(trifluoromethyl)benzyl)thiazole-4-carboxamide] |
| 0.1 to 0.5 | O=C(Nc1cccc2ncn(Cc3ccc(F)cc3)c(=O)c12)c1cc(Cl)c(O)c(Cl)c1 [Example 7, 3,5-dichloro-N-(3-(4-fluorobenzyl)-4-oxo-3,4-dihydroquinazolin-5-yl)-4-hydroxybenzamide] |
| 0.1 to 0.5 | Cc1ccc(NC(=O)c2cc(Cl)c(O)c(Cl)n2)c2c(=O)n(Cc3nn(C)c4ccccc34)c(C)nc12 [Example 162, 4,6-dichloro-N-(2,8-dimethyl-3-((1-methyl-1H-indazol-3-yl)methyl)-4-oxo-3,4-dihydroquinazolin-5-yl)-5-hydroxypicolinamide] |
| ≤ 0.1 | Cn1nc(Cn2cnc3cccc(NC(=O)c4cc(Cl)c(O)c(Cl)c4)c3c2=O)c2ccccc21 [Example 117, 3,5-dichloro-4-hydroxy-N-(3-((1-methyl-1H-indazol-3-yl)methyl)-4-oxo-3,4-dihydroquinazolin-5-yl)benzamide] |
| ≤ 0.1 | Cc1ccc(NC(=O)c2cc(Cl)c(O)c(Cl)c2)c2c(=O)n(Cc3ccccc3OC(F)(F)F)cnc12 [Example 88, 3,5-dichloro-4-hydroxy-N-(8-methyl-4-oxo-3-(2-(trifluoromethoxy)benzyl)-3,4-dihydroquinazolin-5-yl)benzamide] |
| 0.1 to 0.5 | [2H]C([2H])([2H])c1nc2c(F)ccc(NC(=O)c3cc(Cl)c(O)c(Cl)c3)c2c(=O)n1Cc1ccccc1C(F)(F)F [Example 171, 3,5-dichloro-N-(8-fluoro-2-(methyl-d3)-4-oxo-3-(2-(trifluoromethyl)benzyl)-3,4-dihydroquinazolin-5-yl)-4-hydroxybenzamide] |
| ≤ 0.1 | N#Cc1ccccc1Cn1cnc2cccc(NC(=O)c3cc(Cl)c(O)c(Cl)c3)c2c1=O [Example 53, 3,5-dichloro-N-(3-(2-cyanobenzyl)-4-oxo-3,4-dihydroquinazolin-5-yl)-4-hydroxybenzamide] |
| 0.1 to 0.5 | Cc1nc2c(Cl)ccc(NC(=O)c3cc(Cl)c(O)c(Cl)n3)c2c(=O)n1Cc1ccccc1C(F)(F)F [Example 170, 4,6-dichloro-N-(8-chloro-2-methyl-4-oxo-3-(2-(trifluoromethyl)benzyl)-3,4-dihydroquinazolin-5-yl)-5-hydroxypicolinamide] |
| 0.5 to 1 | Cc1ccc(NC(=O)c2cc(Cl)c(O)c(Cl)c2)c2c(=O)n(Cc3cccc(C(F)(F)F)n3)c(C)nc12 [Example 199, 3,5-dichloro-N-(2,8-dimethyl-4-oxo-3-((6-(trifluoromethyl)pyridin-2-yl)methyl)-3,4-dihydroquinazolin-5-yl)-4-hydroxybenzamide] |
| 0.1 to 0.5 | Cc1nc2c(Cl)ccc(NC(=O)c3cc(Cl)c(O)c(Cl)n3)c2c(=O)n1Cc1ncccc1C(F)(F)F [Example 165, 4,6-dichloro-N-(8-chloro-2-methyl-4-oxo-3-((3-(trifluoromethyl)pyridin-2-yl)methyl)-3,4-dihydroquinazolin-5-yl)-5-hydroxypicolinamide] |
| 0.1 to 0.5 | Cn1ccc(-c2ccccc2Cn2cnc3cccc(NC(=O)c4cc(Cl)c(O)c(Cl)c4)c3c2=O)n1 [Example 105, 3,5-dichloro-4-hydroxy-N-(3-(2-(1-methyl-1H-pyrazol-3-yl)benzyl)-4-oxo-3,4-dihydroquinazolin-5-yl)benzamide] |
